As usually defined, the half-life is the time in which the quantity being followed falls by half.

These results are taken from patent US20090269354A1, “QUINAZOLINE DERIVATIVES AND METHODS OF TREATMENT” (Concert Pharmaceuticals, Inc., priority 2008, published 2009).

Series [1] is described as follows: Compound stability in human liver microsomes (Example 16, design as Example 15). Particulars: 1 μM test compound; for half-life at 1 μM: pooled human liver microsomes, pH 7.4, human liver microsomes 0.5 mg/mL; for % Difference with respect to non-deuterated analog: t1/2 vs 105-H or 106-H; for % Difference with respect to non-deuterated analog / % Difference with respect to non-deuterated Erlotinib: 0.5 mg/mL HLM; for % Difference with respect to non-deuterated Erlotinib: t1/2 vs erlotinib. The series is classed as in vitro ADME. The protocol:
The metabolic stability of compounds of the invention was tested using pooled liver microsomal incubations. Samples of the test compounds, exposed to pooled human liver microsomes, were analyzed using HPLC-MS (or MS/MS) detection. For determining metabolic stability, multiple reaction monitoring (MRM) was used to measure the disappearance of the test compounds.
Experimental Procedures. Human liver microsomes (“HLM”; 20 mg/mL) were obtained from Xenotech, LLC (Lenexa, Kans.). β-nicotinamide adenine dinucleotide phosphate, reduced form (NADPH), magnesium chloride (MgCl2), and dimethyl sulfoxide (DMSO) were purchased from Sigma-Aldrich.
Stock solutions of test compounds (7.5 mM) were prepared in DMSO. The 7.5 mM stock solutions were diluted to 50 μM in acetonitrile (ACN). The 20 mg/mL human liver microsomes were diluted to 0.625 mg/mL in 0.1 M potassium phosphate buffer, pH 7.4, containing 3 mM MgCl2. The diluted microsomes (375 μL) were added to wells of a 96-well deep-well polypropylene plate in triplicate. A 10 μL aliquot of the 50 μM test compound solution was added to the microsomes and the mixture was pre-warmed for 10 minutes. Reactions were initiated by addition of 125 μL of pre-warmed NADPH solution (8 mM NADPH in 0.1M potassium phosphate buffer, pH 7.4, containing 3 mM MgCl2). The final reaction volume was 0.5 mL and contained 0.5 mg/mL human liver microsomes, 1 μM test compound, and 2 mM NADPH in 0.1 M potassium phosphate buffer, pH 7.4, and 3 mM MgCl2. The reaction mixtures were incubated at 37° C., and 50 μL aliquots were removed at 0, 5, 10, 20, and 30 minutes and added to shallow-well 96-well plates which contained 50 μL of ice-cold ACN with internal standard to stop the reactions. The plates were stored at 4° C. for 20 minutes after which 100 μL of water was added to the wells of the plate before centrifugation to pellet precipitated proteins. Supernatants were transferred to another 96-well plate and analyzed for amounts of parent remaining by LC-MS/MS using an Applied Bio-systems API 4000 mass spectrometer. 7-ethoxycoumarin was used as a positive control.
The in vitro t1/2 s for test compounds were calculated from the slopes of the linear regression of % parent remaining (ln) vs incubation time relationship.
in vitro t1/2=0.693/k, where k=−[slope of linear regression of % parent remaining(ln) vs incubation time]. Data analysis was performed using Microsoft Excel Software.
Evaluation of Compound Stability in Human Liver Microsomes.

Series [2] in a line: Compound stability in human liver microsomes (Example 15). In kind it is in vitro ADME. To be noted: 1 μM test compound; for half-life at 1 μM: pH 7.4, pooled human liver microsomes 0.5 mg/mL, 2 mM NADPH, 37° C., 0-30 min; for % Difference (t1/2 compared to erlotinib): [(deuterated species) − (nondeuterated species)](100)/(nondeuterated species), reference erlotinib, 0.5 mg/mL HLM. As to the method:
Evaluation of Compound Stability in Human Liver Microsomes. […] The metabolic stability of compounds of the invention was tested using pooled liver microsomal incubations. Samples of the test compounds, exposed to pooled human liver microsomes, were analyzed using HPLC-MS (or MS/MS) detection. For determining metabolic stability, multiple reaction monitoring (MRM) was used to measure the disappearance of the test compounds. Experimental Procedures. Human liver microsomes (“HLM”; 20 mg/mL) were obtained from Xenotech, LLC (Lenexa, Kans.). β-nicotinamide adenine dinucleotide phosphate, reduced form (NADPH), magnesium chloride (MgCl2), and dimethyl sulfoxide (DMSO) were purchased from Sigma-Aldrich. Stock solutions of test compounds (7.5 mM) were prepared in DMSO. The 7.5 mM stock solutions were diluted to 50 μM in acetonitrile (ACN). The 20 mg/mL human liver microsomes were diluted to 0.625 mg/mL in 0.1 M potassium phosphate buffer, pH 7.4, containing 3 mM MgCl2. The diluted microsomes (375 μL) were added to wells of a 96-well deep-well polypropylene plate in triplicate. A 10 μL aliquot of the 50 μM test compound solution was added to the microsomes and the mixture was pre-warmed for 10 minutes. Reactions were initiated by addition of 125 μL of pre-warmed NADPH solution (8 mM NADPH in 0.1M potassium phosphate buffer, pH 7.4, containing 3 mM MgCl2). The final reaction volume was 0.5 mL and contained 0.5 mg/mL human liver microsomes, 1 μM test compound, and 2 mM NADPH in 0.1 M potassium phosphate buffer, pH 7.4, and 3 mM MgCl2. The reaction mixtures were incubated at 37° C., and 50 μL aliquots were removed at 0, 5, 10, 20, and 30 minutes and added to shallow-well 96-well plates which contained 50 μL of ice-cold ACN with internal standard to stop the reactions. The plates were stored at 4° C. for 20 minutes after which 100 μL of water was added to the wells of the plate before centrifugation to pellet precipitated proteins. Supernatants were transferred to another 96-well plate and analyzed for amounts of parent remaining by LC-MS/MS using an Applied Bio-systems API 4000 mass spectrometer. 7-ethoxycoumarin was used as a positive control. The in vitro t1/2 s for test compounds were calculated from the slopes of the linear regression of % parent remaining (ln) vs incubation time relationship. […] Data analysis was performed using Microsoft Excel Software.
On the technique in general: Microsomes from liver hold many membrane-bound enzymes, among them those of drug oxidation.

Structures are written as SMILES.

Consider `[2H]C([2H])([2H])OC([2H])([2H])COc1cc2ncnc(Nc3cccc(Br)c3)c2cc1OCC([2H])([2H])OC([2H])([2H])[2H]` [Compound 105, N-(3-Bromophenyl)-6,7-bis(2-(methoxy-d3)-2,2-d2-ethoxy)quinazolin-4-amine], for which, in series [1], the half-life at 1 μM turned out to be 1.18 h, the “% Difference with respect to non-deuterated analog” value turned out to be 35% and the “% Difference with respect to non-deuterated Erlotinib” value amounted to 19%.

In series [2], `[2H]C([2H])([2H])OC([2H])([2H])COc1cc2ncnc(Nc3ccc(O)c(C#C)c3)c2cc1OCC([2H])([2H])OC([2H])([2H])[2H]` [Compound 138, 4-(6,7-Bis(2-(methoxy-d3)-2,2-d2-ethoxy)quinazolin-4-ylamino)-2-ethynylphenol] showed a half-life at 1 μM of 1.48 h.

As to `[2H]C([2H])([2H])OC([2H])([2H])C([2H])([2H])Oc1cc2ncnc(Nc3cccc(C#C)c3)c2cc1OC([2H])([2H])C([2H])([2H])OC([2H])([2H])[2H]` [Compound 120, N-(3-Ethynylphenyl)-6,7-bis(2-(methoxy-d3)ethoxy-d4)quinazolin-4-amine], in series [2], the half-life at 1 μM worked out at 1.14 h.

Consider `[2H]C([2H])([2H])OC([2H])([2H])COc1cc2ncnc(Nc3cccc(Cl)c3)c2cc1OCC([2H])([2H])OC([2H])([2H])[2H]` [Compound 106, N-(3-Chlorophenyl)-6,7-bis(2-(methoxy-d3)-2,2-d2-ethoxy)quinazolin-4-amine], for which, in series [1], the half-life at 1 μM turned out to be 1.54 h, the “% Difference with respect to non-deuterated analog” value stood at 22% and the “% Difference with respect to non-deuterated Erlotinib” value is listed as 55%.

As for `[2H]C([2H])([2H])OC([2H])([2H])COc1cc2ncnc(Nc3ccc(F)c(C#C)c3)c2cc1OCC([2H])([2H])OC([2H])([2H])[2H]` [Compound 135, N-(3-Ethynyl-4-fluorophenyl)-6,7-bis(2-(methoxy-d3)-2,2-d2-ethoxy)quinazolin-4-amine], in series [2], the “% Difference (t1/2 compared to erlotinib)” value was −19% and the half-life at 1 μM was 0.785 h.

Regarding `C#Cc1cccc(Nc2ncnc3cc(OCCOC)c(OCCOC)cc23)c1` [Erlotinib, [6,7-Bis-(2-methoxy-ethoxy)-quinazolin-4-yl]-(3-ethynyl-phenyl)-amine, reference compound], the half-life at 1 μM in series [2] amounted to 0.963 h; in series [1] it was 0.997 h.

Turning to `[2H]C([2H])([2H])OC([2H])([2H])C([2H])([2H])Oc1cc2ncnc(Nc3ccc(F)c(C#C)c3)c2cc1OC([2H])([2H])C([2H])([2H])OC([2H])([2H])[2H]` [Compound 121, N-(3-Ethynyl-4-fluorophenyl)-6,7-bis(2-(methoxy-d3)ethoxy-d4)quinazolin-4-amine], in series [2], the “% Difference (t1/2 compared to erlotinib)” value is −12% and the half-life at 1 μM worked out at 0.847 h.
